From ChEMBL document CHEMBL1201862, “PubChem BioAssay data set” (2004) come the findings set out here.

Each structure is given as a SMILES string.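 Cells were grown in 96-well plates and exposed to each compound for 48 hours at five concentrations; endpoints were interpolated linearly between bracketing concentrations, or set to the highest concentration if not reached. Here, GI50 denotes the concentration required for 50% inhibition of growth.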 Active and inactive are the calls of the source. Rule as the data show it: active = GI50 up to about 1.1 µM and inactive = higher.

Among the test systems are UACC-257; CCRF-CEM; K562; HL-60; UO-31; SK-MEL-5; U-251; OVCAR-4; IGROV-1; LOX IMVI; NCI/ADR-RES; NCI-H23; SK-MEL-28; HCT-15; SF-539; CAKI-1; SR; RPMI-8226; 786-0; PC-3.
What all share (assay): growth of human tumour cells (NCI), 48 h

In the case of `O=[N+]([O-])c1ccc(/C=C/c2ccc(/N=N/c3ccc(/C=C/c4ccc([N+](=O)[O-])cc4S(=O)(=O)O)c(S(=O)(=O)O)c3)cc2S(=O)(=O)O)c(S(=O)(=O)O)c1`, the GI50 in the assay on UACC-257, in the assay on CCRF-CEM, in the assay on K562, with HL-60, with UO-31 and in the assay with SK-MEL-5 was > 100 µM (inactive) in each case. The GI50 was > 100 µM (inactive) in the assay on U-251; > 56.8 µM (inactive) in the assay with OVCAR-4; > 100 µM (inactive) in the assay with IGROV-1; > 100 µM (inactive) with LOX IMVI; > 100 µM (inactive) in the assay with NCI/ADR-RES; > 100 µM (inactive) with NCI-H23. Also, the GI50 with SK-MEL-28 was > 100 µM (inactive); in the assay on HCT-15, more than 63.7 µM; in the assay on SF-539 it was > 100 µM (inactive).

As for `CCOC(=O)C1C=C2O[C@@H]3OC4(CCCCC4)O[C@@H]3C2[C@H]2C(=O)C=CC(=O)[C@@]12C(=O)OC` (stereo partly drawn), the GI50 in the assay with UACC-257 was 16.8 µM (inactive); in the assay with CCRF-CEM it was 2.84 µM (inactive); in the assay with CAKI-1, 16 µM (inactive); in the assay on SR, 2.71 µM (inactive); in the assay with K562 it was 5.45 µM (inactive); in the assay with RPMI-8226 it was 2.84 µM (inactive). The GI50 is 2.25 µM (inactive) in the assay on HL-60; 16.3 µM (inactive) in the assay on UO-31; 19.2 µM (inactive) in the assay on SK-MEL-5; 8.69 µM (inactive) in the assay with U-251; 9.31 µM (inactive) in the assay on OVCAR-4; 10.3 µM (inactive) in the assay with IGROV-1. In addition, the GI50 was 15.5 µM (inactive) in the assay on LOX IMVI; 16.3 µM (inactive) with NCI-H23; 15.6 µM (inactive) with SK-MEL-28; 9.4 µM with HCT-15; 3.15 µM (inactive) in the assay with SF-539; 7.21 µM (inactive) in the assay on 786-0.

Consider `CSc1nc2c(ncn2C2OC(CO)C(O)C(O)C2O)c(=O)n1C` (stereo not drawn), for which the GI50 with UACC-257, in the assay on CCRF-CEM, in the assay on K562, with RPMI-8226, in the assay with HL-60 and in the assay on UO-31 was > 100 µM (inactive) throughout. Moreover, the GI50 in the assay with SK-MEL-5, in the assay with U-251, with OVCAR-4, in the assay on IGROV-1, in the assay on LOX IMVI and with NCI/ADR-RES was > 100 µM (inactive) in each case. In addition, the GI50 is > 100 µM (inactive) in the assay with NCI-H23, > 100 µM (inactive) in the assay on SK-MEL-28, more than 100 µM with HCT-15 and > 100 µM (inactive) in the assay on SF-539.

As to `O=CN/C=C/c1ccccc1O`, the GI50 is > 100 µM (inactive) in the assay with UACC-257; > 100 µM (inactive) with CCRF-CEM; > 100 µM (inactive) in the assay with CAKI-1; > 100 µM (inactive) in the assay on SR; > 31.6 µM (inactive) in the assay with K562; > 100 µM (inactive) in the assay with RPMI-8226. Besides, the GI50 in the assay on HL-60 is > 86.7 µM (inactive); in the assay on UO-31, > 100 µM (inactive); in the assay on SK-MEL-5 it was > 100 µM (inactive); in the assay on U-251, > 100 µM (inactive); in the assay on OVCAR-4, > 100 µM (inactive); with IGROV-1 it was > 100 µM (inactive). Besides, the GI50 with LOX IMVI is > 100 µM (inactive); in the assay with NCI-H23, > 100 µM (inactive); in the assay on SK-MEL-28, > 100 µM (inactive); in the assay with HCT-15, more than 100 µM; in the assay with SF-539, > 100 µM (inactive); with 786-0 it was > 100 µM (inactive).

Consider `COC(=O)C1=C(\O)C[C@@]2(C)CC[C@@H](C(=O)OC)C2C/C=C\1C(=O)OC` (stereo partly drawn), for which the GI50 with UACC-257 is 72.8 µM (inactive); in the assay on CCRF-CEM, > 100 µM (inactive); in the assay on CAKI-1 it was > 100 µM (inactive); in the assay with SR it was 81.3 µM (inactive); in the assay on RPMI-8226 it was 50.1 µM (inactive); in the assay with HL-60 it was 49.5 µM (inactive). The GI50 with UO-31 is 64 µM (inactive); with SK-MEL-5 it was 48.9 µM (inactive); in the assay with U-251 it was > 100 µM (inactive); with OVCAR-4 it was > 100 µM (inactive); in the assay with IGROV-1, > 100 µM (inactive); in the assay with LOX IMVI, > 100 µM (inactive). In addition, the GI50 in the assay with SK-MEL-28 is 47 µM (inactive); with HCT-15 it was more than 100 µM; in the assay with SF-539 it was 19.7 µM (inactive); with 786-0, > 100 µM (inactive).

As to `NC(CCCCNC(=O)C(Cc1ccccc1)NC(=O)OCc1ccccc1)C(=O)NC(CCCCNC(=O)C(Cc1ccccc1)NC(=O)OCc1ccccc1)C(=O)NC(CCCCNC(=O)C(Cc1ccccc1)NC(=O)OCc1ccccc1)C(=O)NC(CCCCNC(=O)C(Cc1ccccc1)NC(=O)OCc1ccccc1)C(=O)NC(CCCCNC(=O)C(Cc1ccccc1)NC(=O)OCc1ccccc1)C(=O)NC(CCCCNC(=O)C(Cc1ccccc1)NC(=O)OCc1ccccc1)C(=O)O` (stereo not drawn), the GI50 in the assay on UACC-257, in the assay with CCRF-CEM, in the assay with CAKI-1, with SR, with K562 and in the assay on RPMI-8226 was > 100 µM (inactive) in each case. For the same compound, the GI50 with HL-60, in the assay on PC-3, in the assay with UO-31, in the assay on SK-MEL-5, in the assay on U-251 and in the assay on OVCAR-4 was > 100 µM (inactive) in each case. Besides, the GI50 with IGROV-1 is > 100 µM (inactive); in the assay on LOX IMVI, > 100 µM (inactive); with NCI-H23, > 100 µM (inactive); in the assay with SK-MEL-28, > 100 µM (inactive); in the assay on HCT-15 it was more than 100 µM; with 786-0, > 100 µM (inactive).

For the compound `Cc1nn(C(=O)Cc2ccccc2)c2c1C(c1ccc3ccccc3c1O)SC(=N)N2` (stereo not drawn), the GI50 in the assay on UACC-257 was > 100 µM (inactive); in the assay on CCRF-CEM, 22.1 µM (inactive); in the assay with CAKI-1, > 100 µM (inactive); in the assay on SR it was 48.9 µM (inactive); in the assay on K562, > 100 µM (inactive); in the assay with RPMI-8226, 76.2 µM (inactive). Further, the GI50 in the assay with HL-60 was 39.6 µM (inactive); with PC-3, > 100 µM (inactive); in the assay on UO-31, 80 µM (inactive); in the assay on SK-MEL-5, > 100 µM (inactive); with IGROV-1 it was > 100 µM (inactive); with LOX IMVI, > 100 µM (inactive). The GI50 is > 100 µM (inactive) in the assay on NCI-H23, > 100 µM (inactive) in the assay with SK-MEL-28, more than 100 µM with HCT-15 and > 100 µM (inactive) with SF-539.

With `Cc1ccc(NC(=O)SCCC(=O)O)cc1`, the GI50 with UACC-257, in the assay with CCRF-CEM, in the assay with CAKI-1, in the assay with SR, in the assay with K562 and with RPMI-8226 was > 100 µM (inactive) in each case. The GI50 in the assay with HL-60 was > 100 µM (inactive); in the assay with UO-31 it was > 100 µM (inactive); in the assay on U-251 it was > 100 µM (inactive); in the assay with OVCAR-4, > 100 µM (inactive); in the assay with IGROV-1, 47.4 µM (inactive); with LOX IMVI, > 100 µM (inactive). Also, the GI50 in the assay with NCI-H23 is > 100 µM (inactive); with SK-MEL-28, > 100 µM (inactive); in the assay on HCT-15, more than 100 µM; in the assay on SF-539, > 100 µM (inactive); in the assay on 786-0, > 100 µM (inactive).

As for `CC1CCCCNC1=S` (stereo not drawn), the GI50 in the assay with UACC-257, in the assay with CCRF-CEM, in the assay with SR, in the assay on K562, with HL-60 and in the assay on PC-3 was > 10 µM (inactive) each time. Further, the GI50 in the assay with UO-31, with SK-MEL-5, with U-251, in the assay on IGROV-1, in the assay on LOX IMVI and in the assay on NCI-H23 was > 10 µM (inactive) throughout. Moreover, the GI50 with SK-MEL-28 was > 10 µM (inactive); in the assay with HCT-15, more than 10 µM; with SF-539, > 10 µM (inactive).

`O=C(c1ccccc1)c1nnn(Cc2cccc(Cl)c2)c1C(=O)c1ccccc1`: the GI50 with UACC-257 was > 100 µM (inactive); in the assay with CCRF-CEM, > 100 µM (inactive); in the assay with CAKI-1 it was 98.2 µM (inactive); with SR, > 100 µM (inactive); with K562, > 100 µM (inactive); with RPMI-8226, > 100 µM (inactive). Also, the GI50 in the assay on HL-60 is > 100 µM (inactive); in the assay with UO-31 it was > 100 µM (inactive); with SK-MEL-5, 88.3 µM (inactive); in the assay with U-251, > 100 µM (inactive); with OVCAR-4, > 100 µM (inactive); in the assay on IGROV-1, > 100 µM (inactive). Also, the GI50 is > 100 µM (inactive) in the assay with LOX IMVI; > 100 µM (inactive) in the assay with NCI-H23; > 100 µM (inactive) in the assay on SK-MEL-28; more than 100 µM in the assay on HCT-15; > 100 µM (inactive) with 786-0.

On to `O=C(Nc1ccn(CCOC(=O)c2ccccc2)c(=O)n1)c1ccccc1`, for which the GI50 in the assay on UACC-257, with CCRF-CEM, with CAKI-1, with SR, in the assay with K562 and in the assay with RPMI-8226 was > 100 µM (inactive) in each case. Further, the GI50 in the assay with HL-60, in the assay on UO-31, with SK-MEL-5, in the assay with U-251, in the assay with OVCAR-4 and with IGROV-1 was > 100 µM (inactive) each time. Moreover, the GI50 with LOX IMVI is > 100 µM (inactive); in the assay on SK-MEL-28 it was > 100 µM (inactive); with HCT-15 it was more than 100 µM; in the assay on SF-539 it was > 100 µM (inactive); with 786-0, > 100 µM (inactive).
